Where two headings read alike, the source gives them in different places.
Columns and labels:
[1] = system: L. donovani MHOM/ET/67/L82 intracellular amastigotes; details: read-out: L. donovani MHOM/ET/67/L82 intracellular amastigotes IC50
MRC-5SV2 cells = test: Cytotoxicity assay on MRC-5SV2 cells (resazurin)
[2] = system: primary peritoneal mouse macrophages (PMM); test: Cytotoxicity to PMM (microscopic scoring within susceptibility assay)
[3] = system: Leishmania infantum MHOM/MA(BE)/67/ITMAP263 intracellular amastigotes; details: for L. Inf. pIC50: from L. infantum intracellular amastigote IC50; for IC50: read-out: L. infantum MHOM/MA(BE)/67/ITMAP263 intracellular amastigotes IC50
[4] = system: primary peritoneal mouse macrophages (PMM); details: PMM IC50 / L. infantum IC50
[5] = system: Trypanosoma cruzi, Tulahuen CL2, beta-galactosidase strain; test: microbe, parasite or virus in culture; details: MRC5, read-out: T. cruzi Tulahuen C4 (LacZ) IC50
in vitro [6] = details: human, HepG2 cells
in vitro [7] = details: human, HFF-1 cells
in vitro [8] = details: human, microsomes, pH 7.4, HLM CLint, human liver microsomes
[9] = system: Leishmania infantum MHOM/MA(BE)/67/ITMAP263 intracellular amastigotes; test: microbe, parasite or virus in culture; details: Macrophage, in Mus musculus
in vitro [10] = details: human
in vitro [11] = details: PAMPA
in vitro [12] = details: mouse, microsomes, pH 7.4, MLM CLint, mouse liver microsomes
physchem = details: HPLC, Ascentis Express RP Amide column, pH 7.4, eLogD, experimental
[13] = system: primary peritoneal mouse macrophages (PMM); test: cells; details: Macrophage, read-out: PMM IC50
[14] = read-out: L. Inf. pIC50, from L. infantum intracellular amastigote IC50 (converted)
[15] = read-out: L. infantum MHOM/MA(BE)/67/ITMAP263 intracellular amastigotes IC50, intracellular amastigotes

Structure (SMILES)	IC50 [1]	CC50 (MRC-5SV2 cells)	IC50 [2]	L. Inf. pIC50 [3]	IC50 [3]	SI (vs PMM) [4]	IC50 [5]	CC50 (in vitro [6])	CC50 (in vitro [7])	microsomal CLint at 0.5 μM (in vitro [8])	IC50 [9, 14]	IC50 [9, 15]	CC50 at 3 days (in vitro [10])	Papp (in vitro [11])	microsomal CLint at 0.5 μM (in vitro [12])	chromatographic logD (physchem)	IC50 [13]
CCN(Cc1ccccc1)S(=O)(=O)c1cc(OC)c(C)cc1OC [Compound Z2235810678]	6.35 µM	> 32 µM	> 32 µM	5.97	1.08 µM	30	–	–	–	–	–	–	–	–	–	–	–
COc1ccc(OC)c(S(=O)(=O)N(Cc2ccc(F)cc2)Cc2ncccn2)c1 [DNDI0003370419]	–	–	–	–	–	–	38.8 µM	> 64 µM	19.1 µM	115 µL/min/mg	13.8 µM	13.8 µM	> 64 µM	25.1 ×10⁻⁶ cm/s	844 µL/min/mg	3.4	> 64 µM
O=c1[nH]cccc1S(=O)(=O)N(Cc1ccc(F)cc1)Cc1ccc(F)cc1 [DNDI0003371165]	–	–	–	–	–	–	42.3 µM	> 64 µM	23.2 µM	44 µL/min/mg	> 64 µM	> 64 µM	> 64 µM	23.6 ×10⁻⁶ cm/s	218 µL/min/mg	3.8	> 64 µM
CCCOc1cc(C)c(C)cc1S(=O)(=O)NC1CCCCC1 [Compound Z1198524053]	> 32 µM	> 32 µM	> 32 µM	5.27	5.38 µM	6	–	–	–	–	–	–	–	–	–	–	–
CCCCCOc1cc(C)c(C)cc1S(=O)(=O)NC1CCCCC1 [Compound Z1201712752]	4.32 µM	26.1 µM	> 32 µM	5.98	1.04 µM	31	–	–	–	–	–	–	–	–	–	–	–
CCN(CC)S(=O)(=O)c1ccc(OC)c(NC(=O)CNc2cccc3c2CCCC3)c1 [Compound Z133511332]	> 32 µM	> 32 µM	> 32 µM	–	> 32 µM	1	–	–	–	–	–	–	–	–	–	–	–
O=S(=O)(c1cccnc1OC(F)F)N(Cc1ccc(F)cc1)Cc1ccc(F)cc1 [DNDI0003371167]	–	–	–	–	–	–	31.2 µM	> 64 µM	> 64 µM	751 µL/min/mg	9.33 µM	9.4 µM	> 64 µM	0.98 ×10⁻⁶ cm/s	3070 µL/min/mg	4.8	> 64 µM
Nc1ncccc1S(=O)(=O)N(Cc1ccc(F)cc1)Cc1ccc(F)cc1 [DNDI0003371163]	–	–	–	–	–	–	42 µM	> 64 µM	52.2 µM	164 µL/min/mg	> 64 µM	> 64 µM	> 64 µM	2.18 ×10⁻⁶ cm/s	447 µL/min/mg	4.2	> 64 µM
COc1ccc(C#N)cc1S(=O)(=O)N(Cc1ccc(F)cc1)Cc1oc(C)nc1C [DNDI0003370421]	–	–	–	–	–	–	26.1 µM	> 64 µM	1.91 µM	392 µL/min/mg	7.94 µM	7.89 µM	49.1 µM	14.8 ×10⁻⁶ cm/s	721 µL/min/mg	3.7	> 64 µM
CNc1ncccc1S(=O)(=O)N(Cc1ccc(F)cc1)Cc1ccc(F)cc1 [DNDI0003371162]	–	–	–	–	–	–	14.5 µM	16.9 µM	> 64 µM	401 µL/min/mg	3.55 µM	3.54 µM	> 64 µM	1.61 ×10⁻⁶ cm/s	984 µL/min/mg	4.5	> 64 µM
COc1ccc(OC)c(S(=O)(=O)N2CCC(c3ccccc3)CC2)c1 [DNDI0003370422]	–	–	–	–	–	–	16.9 µM	63.9 µM	4.56 µM	1610 µL/min/mg	> 64 µM	> 64 µM	> 64 µM	6.45 ×10⁻⁶ cm/s	664 µL/min/mg	4.2	> 64 µM
COc1ncccc1S(=O)(=O)N(Cc1ccc(F)cc1)Cc1ccc(F)cc1 [DNDI0003371169]	–	–	–	–	–	–	44.2 µM	> 64 µM	> 64 µM	334 µL/min/mg	12.9 µM	13 µM	> 64 µM	2.56 ×10⁻⁶ cm/s	1170 µL/min/mg	4.4	> 64 µM
[2H]C([2H])([2H])Oc1ncccc1S(=O)(=O)N(Cc1ccc(F)cc1)Cc1ccc(F)cc1 [DNDI0003371166]	–	–	–	–	–	–	20.8 µM	18.9 µM	41.8 µM	14 µL/min/mg	32.4 µM	32.1 µM	> 64 µM	4.95 ×10⁻⁶ cm/s	123 µL/min/mg	3.5	> 64 µM
Cn1cccc(S(=O)(=O)N(Cc2ccc(F)cc2)Cc2ccc(F)cc2)c1=O [DNDI0003371168]	–	–	–	–	–	–	24.5 µM	> 64 µM	62.5 µM	222 µL/min/mg	20.4 µM	20.5 µM	> 64 µM	18.3 ×10⁻⁶ cm/s	629 µL/min/mg	3.8	> 64 µM
COc1ccc(OC)c(S(=O)(=O)N(Cc2ccc(F)cc2)Cc2oc(C)nc2C)c1 [DNDI0003370420]	–	–	–	–	–	–	24.9 µM	> 64 µM	1.24 µM	376 µL/min/mg	2.34 µM	2.34 µM	> 64 µM	46.4 ×10⁻⁶ cm/s	2280 µL/min/mg	3.8	> 64 µM
